These results are taken from US7592351B2, “Substituted imidazo[1,2-a]pyridine compounds and pharmaceutical preparations containing substituted imidazo[1,2-a]pyridine compounds” (Gruenenthal GmbH, priority 2004, dated 2009).

Where a name gives a salt, the structure may show the parent alone. Read-outs that look alike come from different tables or passages of the source.

For test [1], the target named is T1, vanilloid receptor VR1 (capsaicin receptor) (Rattus norvegicus, UniProt O35433).
T1 construct: isolated from the spinal cord of male Sprague Dawley rats (breeder: Charles River Deutschland, 32699 Extertal) and used for preparation of the membrane; from tissue; host or cells: rat spinal cord (cervical region and one third of the thoracic region) membranes
T1 sequence (O35433 whole entry): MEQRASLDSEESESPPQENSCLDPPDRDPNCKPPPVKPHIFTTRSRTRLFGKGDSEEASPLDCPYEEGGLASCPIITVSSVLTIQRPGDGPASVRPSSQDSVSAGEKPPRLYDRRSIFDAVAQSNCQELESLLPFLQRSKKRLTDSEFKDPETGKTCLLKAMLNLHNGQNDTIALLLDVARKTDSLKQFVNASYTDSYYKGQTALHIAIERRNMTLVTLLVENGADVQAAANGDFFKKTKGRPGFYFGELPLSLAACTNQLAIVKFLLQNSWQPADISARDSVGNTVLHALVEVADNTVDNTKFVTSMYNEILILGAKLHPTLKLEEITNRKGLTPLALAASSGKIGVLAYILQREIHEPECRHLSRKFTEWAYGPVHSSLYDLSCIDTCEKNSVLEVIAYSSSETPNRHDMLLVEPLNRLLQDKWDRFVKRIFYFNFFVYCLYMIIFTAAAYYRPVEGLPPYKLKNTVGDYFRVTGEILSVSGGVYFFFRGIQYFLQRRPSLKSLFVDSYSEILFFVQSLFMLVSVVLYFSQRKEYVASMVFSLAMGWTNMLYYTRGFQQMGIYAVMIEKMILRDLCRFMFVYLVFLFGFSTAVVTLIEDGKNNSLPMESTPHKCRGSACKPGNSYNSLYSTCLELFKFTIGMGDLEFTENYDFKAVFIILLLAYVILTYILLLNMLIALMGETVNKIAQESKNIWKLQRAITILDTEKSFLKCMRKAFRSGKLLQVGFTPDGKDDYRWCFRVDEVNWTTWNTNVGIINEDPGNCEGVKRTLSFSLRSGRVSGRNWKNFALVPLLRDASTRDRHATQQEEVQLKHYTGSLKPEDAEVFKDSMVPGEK
Kind of test: Determination of affinity for vanilloid receptor VR1 ([3H] resiniferatoxin binding, rat spinal cord membranes). Further details: species or system Sprague Dawley rats. The source says:
This method was developed on the basis of the publication by Acs et al., J. Neurochem. 65, 301-308 (1995). The corresponding description is hereby introduced as a reference and is deemed to be part of the disclosure.
• Sprague Dawley rats weighing between 150-300 g • (breeder: Charles River Deutschland, 32699 Extertal, Germany) • HEPES (item no. H-3375, SIGMA) • NaCl (item no. 6400.1000; Merck) • KCl (item no.: 4936.1000; Merck) • HCl (item no.: 1.00317; Merck) • [^3H] resiniferatoxin ([^3H] RTX) (item no.: NET-1132, Perkin-Elmer) • Resiniferatoxin (RTX, cold) (item no.: 550-179-M001, Alexis) • D-Glucose (item no.: 1.08337.1000, Merck) • Sucrose (item no.: S-9378, Sigma) • α1-acid glycoprotein (item no.: G-3643, Sigma) • BSA (bovine serum albumin, item no.: A-2153, Sigma) • GF/B filter mats (Brandel Inc., cat. no. FP 100, size: 2¼″×12¼″)
Buffer: (Concentration values in brackets in each case in mM)
• HEPES (10); KCl (5); NaCl (5.8); CaCl (0.75); MgCl (2.0); D-glucose (12); • sucrose (137). The pH value is adjusted at room temperature using 20% strength HCl. B. Preparation of Membranes
The cervical region and one third of the following thoracic region is isolated from the spinal cord of male Sprague Dawley rats (breeder: Charles River Deutschland, 32699 Extertal) and used for preparation of the membrane. After the combined tissue is weighed, it is homogenized in ice-cooled buffer of the above-stated composition. 20 ml of buffer were used per 1 g of tissue (1:20 weight/volume). Homogenisation performed with a homogeniser from Kinematica, model Polytron PT-3000 with PT-DA-3012/2 drive unit. The spinal cord tissue is disrupted within 60 seconds in the cold buffer with ice cooling at a rotational speed of 6000 rpm. The material is then centrifuged for 10 minutes at 1000 g and +4° C. and the resultant precipitate discarded. The […] in the same volume of buffer of the above-stated composition. The material is then centrifuged for 40 minutes at 48,000 g and +4° C. and the supernatant discarded. The resultant precipitate is resuspended in 30 ml of buffer of the above-stated composition and used in this form in the vanilloid receptor (VR1) assay.
Incubation is performed in the water bath for one hour at 37° C. The samples are then placed in an ice bath for 15 minutes. In order to minimise nonspecific adsorption of the RTX, 100 μg of α1-acid glycoprotein (in 50 μl of buffer) are added to each incubation tube. The samples are then thoroughly mixed on a vortex shaker and left to stand for 10 minutes. The batches are then filtered with the assistance of the model M-24R “Brandel Cell Harvester” through a GF/B glass fiber filter mat which has been presoftened in tris buffer. The filter is then rinsed through 3 times with 4 ml portions of ice-cold HEPES buffer of the above-stated composition for each sample. The filters are transferred into scintillation counter vessels, each is combined with a 10 ml portion of “Ready Protein” scintillating material, and the vessels are closed with screw caps. The vessels are shaken on the vortex shaker and left to stand for at least 15 hours in the fume cupboard. The samples are then measured on the β-counter (model 1409 Wallac, Perkin Elmer, 63110 Rogau-Jügesheim, Germany).

The target in a further test is T2, vanilloid receptor (VR1) (Rattus norvegicus, UniProt O35433).
T2 construct: expressed in transfected cells; host or cells: CHO K1 cells (ECACC)
T2 sequence (O35433 whole entry): as above
Kind of test: Functional investigations on vanilloid receptor (VR1): Ca2+ influx FLIPR assay in CHO K1 cells stably transfected with the VR1 gene. The note with it: method (b), 10 μM, 1–3 measurements; for inhibition at 10 µM: CHO-K1, read-out: VR1 inhibition in rats (10 μM) [%]. It counts as cell-based, rats. The source says:
(b) Functional Investigations on Vanilloid Receptor (VR1)
The agonistic or antagonistic action of the substances to be investigated on the vanilloid receptor (VR1) may be determined with the following assay. According to this assay, the influx of Ca^2+ through the channel is quantified with the assistance of a Ca^2+-sensitive dye (type Fluo4, Molecular Probes Europe BV, Leiden, Netherlands) in a Fluorescent Imaging Plate Reader (FLIPR, Molecular Devices, Sunnyvale, USA).
Chinese hamster ovary cells (CHO K1 cells, European Collection of Cell Cultures (ECACC), Great Britain) are stably transfected with the VR1 gene. For functional investigations, these cells are plated out onto poly-D-lysine-coated, black 96 well plates with a clear bottom (BD Biosciences, Heidelberg, Germany) at a density of 25,000 cells/well. The cells are incubated overnight at 37° C. and 5% CO2 in a culture medium (Ham's Nutrient Mixture F12, 10 vol. % FCS (foetal calf serum), 18 μg/mL L-proline). On the following day, the cells are incubated with Fluo4 (Fluo4 2 μM, Pluronic F127 0.01 vol. %, Molecular Probes in HBSS (Hank's buffered saline solution), Gibco Invitrogen GmbH, Karlsruhe, Germany) for 30 minutes at 37° C. The plates are then washed 3 times with HBSS buffer and, after a further 15 minutes' incubation at room temperature, used for Ca^2+ measurement in the FLIPR. Ca^2+-dependent fluorescence is here measured before and after addition of the substances to be investigated (wavelength λex=488 nm, λem=540 nm). Quantification proceeds by measuring the highest fluorescence intensity (FC, fluorescence counts) over time.
The FLIPR protocol comprises 2 additions of substance. […] The percentage inhibition in comparison with the maximum achievable inhibition with 10 μM capsazepine is calculated.

Take `CCCCC/C=C\C/C=C\C/C=C\C/C=C\CCCC(=O)NCc1ccc(O)c(OC)c1` [Arvanil]: in test [1] ([3H] RTX 100 pM, rat spinal cord membranes, comparison substances, read-out: IC50 (VR-1 receptor affinity, reference data)), the IC50 was found to be 8.9 µM.

Consider `COc1cc(CNC(=O)CCCCCCC(C)C)ccc1O` [Dihydrocapsaicin], for which the IC50 in test [1] came to 2.72 µM.

With `CCCCCCCNc1c(-c2ccoc2)nc2ccccn12` [Example 6, (2-Furan-3-yl-imidazo[1,2-a]pyridin-3-yl)-heptyl-amine hydrochloride], on vanilloid receptor (VR1), the inhibition at 10 µM came out at 66.4%.

Turning to `CCCCCC(C)(C)Nc1c(-c2ccoc2)nc2ccccn12` [Example 7, (1,1-Dimethyl-hexyl)-(2-furan-3-yl-imidazo[1,2-a]pyridin-3-yl)-amine hydrochloride], the inhibition at 10 µM at vanilloid receptor (VR1) stood at 46%.

Consider `CCCCCCCNc1c(-c2ccoc2)nc2cc(C)ccn12.Cl` [Example 11, (2-Furan-3-yl-7-methyl-imidazo[1,2-a]pyridin-3-yl)-heptyl-amine hydrochloride], for which, at vanilloid receptor (VR1), the inhibition at 10 µM amounted to 81.7% and the “VR1 activation in rats (10 μM) [%]” value came out at 50.3%.

As to `CCCCCCCCNc1c(-c2ccoc2)nc2cc(C)ccn12.Cl` [Example 12, (2-Furan-3-yl-7-methyl-imidazo[1,2-a]pyridin-3-yl)-octyl-amine hydrochloride], at vanilloid receptor (VR1), the inhibition at 10 µM turned out to be 84.6% and the “VR1 activation in rats (10 μM) [%]” value stood at 36.9%.

Take `CCCCCC(C)(C)Nc1c(-c2ccoc2)nc2cc(C)ccn12.Cl` [Example 14, (1,1-Dimethyl-hexyl)-(2-furan-3-yl-7-methyl-imidazo[1,2-a]pyridin-3-yl)-amine hydrochloride]: at vanilloid receptor (VR1), the inhibition at 10 µM amounted to 97.9% and the “VR1 activation in rats (10 μM) [%]” value was found to be 52.1%.

As for `CCCCCCC(C)(C)Nc1c(-c2ccoc2)nc2cc(C)ccn12.Cl` [Example 15, (1,1-Dimethyl-heptyl)-(2-furan-3-yl-7-methyl-imidazo[1,2-a]pyridin-3-yl)-amine hydrochloride], on vanilloid receptor (VR1), the inhibition at 10 µM came out at 92.5% and the “VR1 activation in rats (10 μM) [%]” value came out at 49%.

As to `CCCCCCCC(C)(C)Nc1c(-c2ccoc2)nc2cc(C)ccn12` [Example 16, (1,1-Dimethyl-octyl)-(2-furan-3-yl-7-methyl-imidazo[1,2-a]pyridin-3-yl)-amine hydrochloride], on vanilloid receptor (VR1), the inhibition at 10 µM was determined as 31.8%.

With `CCCCCC(C)(C)Nc1c(-c2ccsc2)nc2cc(C)ccn12.Cl` [Example 17, (1,1-Dimethyl-hexyl)-(7-methyl-2-thiophen-3-yl-imidazo[1,2-a]pyridin-3-yl)-amine hydrochloride], at vanilloid receptor (VR1), the inhibition at 10 µM stood at 97.5% and the “VR1 activation in rats (10 μM) [%]” value is recorded as 68.9%.

`CCCCCCC(C)(C)Nc1c(-c2ccsc2)nc2cc(C)ccn12.Cl` [Example 18, (1,1-Dimethyl-heptyl)-(7-methyl-2-thiophen-3-yl-imidazo[1,2-a]pyridin-3-yl)-amine hydrochloride]: on vanilloid receptor (VR1), the inhibition at 10 µM amounted to 62.8% and the “VR1 activation in rats (10 μM) [%]” value turned out to be 45.3%.

As for `CCCCCCCCCNc1c(-c2cccnc2)nc2cc(C)ccn12` [Example 23, (7-Methyl-2-pyridin-3-yl-imidazo[1,2-a]pyridin-3-yl)-nonyl-amine hydrochloride], the inhibition at 10 µM at vanilloid receptor (VR1) amounted to 34.4%.

With `CCCCCCCCNc1c(-c2ccncc2)nc2cc(C)ccn12` [Example 25, (7-Methyl-2-pyridin-4-yl-imidazo[1,2-a]pyridin-3-yl)-octyl-amine hydrochloride], the inhibition at 10 µM on vanilloid receptor (VR1) was 33.2%.

Take `CCCCCC(C)(C)Nc1c(-c2ccncc2)nc2cc(C)ccn12` [Example 26, (1,1-Dimethyl-hexyl)-(7-methyl-2-pyridin-4-yl-imidazo[1,2-a]pyridin-3-yl)-amine hydrochloride]: on vanilloid receptor (VR1), the inhibition at 10 µM was 32.1%.

On to `CCCCCCCCNc1c(-c2ccoc2)nc2ccc(C)cn12` [Example 27, (2-Furan-3-yl-6-methyl-imidazo[1,2-a]pyridin-3-yl)-octyl-amine hydrochloride], for which, at vanilloid receptor (VR1), the inhibition at 10 µM was found to be 61.1%.

With `CCCCCC(C)(C)Nc1c(-c2ccoc2)nc2ccc(C)cn12` [Example 28, (1,1-Dimethyl-hexyl)-(2-furan-3-yl-6-methyl-imidazo[1,2-a]pyridin-3-yl)-amine hydrochloride], the inhibition at 10 µM at vanilloid receptor (VR1) amounted to 36.6%.

`CC1(C)C[C@H]2C=C(C=O)[C@]3(C=O)C[C@]3(C)[C@H]2C1` [Isovelleral] showed an IC50 in test [1] of 7.22 µM.

`C=C(C)[C@]12C[C@@H](C)[C@@]34O[C@](Cc5ccccc5)(O[C@@H]1[C@@H]3C=C(COC(=O)Cc1ccc(O)c(OC)c1)C[C@]1(O)C(=O)C(C)=C[C@@H]41)O2` [Resiniferatoxin]: in test [1], the IC50 amounted to 0.00021 µM.
